Patent publication US4837206A, “Esperamicin derivatives” (Bristol-Myers Company, priority 1987, dated 1989)
≈ marks a conversion by molar mass, not a printed value.

Tests used:
E. coli A15119 = experiment: Antimicrobial activity, serial two-fold agar dilution; assay type: cell-based; conditions: Escherichia coli, nutrient agar medium
Method: (§1) Antimicrobial activity of N-acetylesperamicin A1 was determined for a variety of bacteria by the serial two-fold agar dilution method. Nutrient agar medium was used.

P. aeruginosa A9843 = experiment: as above; assay type: cell-based; conditions: Pseudomonas aeruginosa, nutrient agar medium
Method: as §1

[1] = tested on: S. faecalis/ATCC 33186 A15708; experiment: as above; assay type: cell-based; conditions: Enterococcus faecalis, ATCC33186; nutrient agar medium
Method: as §1

[2] = tested on: E. coli/NCCLS strain A20697; experiment: as above; assay type: cell-based; conditions: Escherichia coli; nutrient agar medium
Method: as §1

S. aureus A9537 = experiment: as above; assay type: cell-based; conditions: Staphylococcus aureus, nutrient agar medium
Method: as §1

[3] = tested on: P. aeruginosa/ATCC 23389 A20235; experiment: as above; assay type: cell-based; conditions: Pseudomonas aeruginosa, ATCC23389; nutrient agar medium
Method: as §1

[4] = tested on: B. subtilis/ATCC 6633 A9506-A; experiment: as above; assay type: cell-based; conditions: Bacillus subtilis, ATCC6633; nutrient agar medium
Method: as §1

S. faecalis A20688 = experiment: as above; assay type: cell-based; conditions: Enterococcus faecalis, nutrient agar medium
Method: as §1

[5] = tested on: S. faecalis/ATCC 29218 A25707; experiment: as above; assay type: cell-based; conditions: Enterococcus faecalis, ATCC29218; nutrient agar medium
Method: as §1

K. pneumoniae A20468 = experiment: as above; assay type: cell-based; conditions: Klebsiella pneumoniae, nutrient agar medium
Method: as §1

K. pneumoniae A9664 = experiment: as above; assay type: cell-based; conditions: Klebsiella pneumoniae, nutrient agar medium
Method: as §1

[6] = tested on: S. aureus/ATCC 29213 A24407; experiment: as above; assay type: cell-based; conditions: Staphylococcus aureus, ATCC29213; nutrient agar medium
Method: as §1

P. vulgaris A21559 = experiment: as above; assay type: cell-based; conditions: Proteus vulgaris, nutrient agar medium
Method: as §1

[7] = tested on: S. aureus/NCCLS strain A20698; experiment: as above; assay type: cell-based; conditions: Staphylococcus aureus; nutrient agar medium
Method: as §1

[8] = tested on: P. aeruginosa/ATCC 27853 A21508; experiment: as above; assay type: cell-based; conditions: Pseudomonas aeruginosa, ATCC27853; nutrient agar medium
Method: as §1

P388 murine leukemia = experiment: P388 In Vivo Murine Leukemia Assay; set-up: species or system CDF1 female mice; conditions: i.p., once on day 1; for % T/C (median survival time): >=125% significant; for MST: control MST 9.5 days; for Average Wgt. change in g (day 4): control 1.1; for No. Mice alive on day 5/total: control 10/10
Method: The test protocol involved CDF1 female mice implanted intraperitoneally with a tumor inoculum of 10^6 ascites cells of P388 murine leukemia and treated with various doses of test compound. The compound was administered by intraperitoneal injection on a certain dosage schedule, i.e. test drug given once on day one, the day of tumor inoculation. Groups of four mice were used for each dosage amount. A group of ten saline-treated control mice was employed.
The test compound was dissolved in a mixture of water and ethanol. Death or survival of the treated and non-treated mice was recorded daily, and the median survival time (MST) in days was calculated for the test (T) and control (C) groups. […] Mice weighing 20 g each were employed and a loss in weight of up to about 2 grams was not considered excessive.

pathogenic bacteria = experiment: Antimicrobial activity (overall); assay type: cell-based
Method: as §1

B16-F10 murine melanoma = experiment: In vitro cytotoxicity assay; assay type: cell-based; conditions: Mus musculus, cell growth inhibition, four-fold serial dilution, values <500 mcg/ml positive indicator of activity
Method: (§2) N-Acetylesperamicin A1 was also tested in the in vitro cytotoxicity assay. This assay involves growing various mammalian tumor cells, including human tumor cells, on microtiter plates employing established tissue culture methods. The concentration of compound required to inhibit cell growth by 50% (IC50) was then determined by a four-fold serial dilution technique. The validity of the method has been supported by a report published in the "Proceedings of the American Association for Cancer Research", Vol. 25, 328, p. 1891 (1984). Tumor cells of the following types were employed: B16-F10 murine melanoma, Moser human colon, and three human colon tumor cell lines, namely HCT-116, HCT-VM34 and HCT/VP35, the latter two being resistant to teniposide (VM) and etoposide (VP).

HCT-116 = experiment: In vitro cytotoxicity assay; assay type: cell-based; conditions: Homo sapiens, cell growth inhibition, four-fold serial dilution, values <500 mcg/ml positive indicator of activity
Method: as §2

HCT/VP35 = experiment: In vitro cytotoxicity assay; assay type: cell-based; conditions: Homo sapiens; HCT/VP35, etoposide-resistant; cell growth inhibition; values <500 mcg/ml positive indicator of activity
Method: as §2

Moser human colon = experiment: In vitro cytotoxicity assay; assay type: cell-based; conditions: cell growth inhibition, four-fold serial dilution, values <500 mcg/ml positive indicator of activity
Method: as §2

HCT/VM34 = experiment: In vitro cytotoxicity assay; assay type: cell-based; conditions: Homo sapiens; HCT/VM34, teniposide-resistant; cell growth inhibition; values <500 mcg/ml positive indicator of activity
Method: as §2

## C=C(OC)C(=O)Nc1cc(OC)c(OC)cc1C(=O)OC1CC(OC2C(=O)C(NC(=O)OC)=C3C(=CCSSSC)C2(O)C#CC=CC#CC3OC2OC(C)C(NOC3CC(O)C(SC)C(C)O3)C(O)C2OC2CC(OC)C(N(C(C)=O)C(C)C)CO2)OC(C)C1O (stereo not shown) [N-Acetylesperamicin A1]
E. coli A15119
  MIC: 32 µg/mL (≈ 23.4 µM)
P. aeruginosa A9843
  MIC: > 125 µg/mL
[1]
  MIC: 0.016 µg/mL (≈ 0.0117 µM)
[2]
  MIC: 8 µg/mL (≈ 5.85 µM)
S. aureus A9537
  MIC: 0.008 µg/mL (≈ 0.00585 µM)
[3]
  MIC: 125 µg/mL (≈ 91.4 µM)
[4]
  MIC: 0.03 µg/mL (≈ 0.0219 µM)
S. faecalis A20688
  MIC: 0.03 µg/mL (≈ 0.0219 µM)
[5]
  MIC: 0.016 µg/mL (≈ 0.0117 µM)
K. pneumoniae A20468
  MIC: > 125 µg/mL
K. pneumoniae A9664
  MIC: 32 µg/mL (≈ 23.4 µM)
[6]
  MIC: 0.03 µg/mL (≈ 0.0219 µM)
P. vulgaris A21559
  MIC: 125 µg/mL (≈ 91.4 µM)
[7]
  MIC: 0.016 µg/mL (≈ 0.0117 µM)
[8]
  MIC: > 125 µg/mL
P388 murine leukemia; 0.0016 mg/kg
  % T/C (median survival time): 147%
  MST: 14.0 days
  Average Wgt. change in g (day 4): -0.5 g
  No. Mice alive on day 5/total: 6/6
P388 murine leukemia; 0.0032 mg/kg
  % T/C (median survival time): 153%
  MST: 14.5 days
  Average Wgt. change in g (day 4): -0.2 g
  No. Mice alive on day 5/total: 6/6
P388 murine leukemia; 0.0064 mg/kg
  % T/C (median survival time): 147%
  MST: 14.0 days
  Average Wgt. change in g (day 4): -1.7 g
  No. Mice alive on day 5/total: 6/6
P388 murine leukemia; 0.0128 mg/kg
  % T/C (median survival time): 179%
  MST: 17.0 days
  Average Wgt. change in g (day 4): -2.2 g
  No. Mice alive on day 5/total: 6/6
P388 murine leukemia; 0.0256 mg/kg
  % T/C (median survival time): 63%
  MST: 6.0 days
  Average Wgt. change in g (day 4): -3.1 g
  No. Mice alive on day 5/total: 4/6
P388 murine leukemia; 0.0512 mg/kg
  % T/C (median survival time): 63%
  MST: 6.0 days
  Average Wgt. change in g (day 4): -2.9 g
  No. Mice alive on day 5/total: 4/6
P388 murine leukemia; 0.0896 mg/kg
  % T/C (median survival time): TOX
  MST: TOX
  Average Wgt. change in g (day 4): -3.4 g
  No. Mice alive on day 5/total: 0/6
Pathogenic bacteria
  Antibacterial activity (in words): showed activity against a variety of pathogenic bacteria
B16-F10 murine melanoma
  IC50: 0.0522 µg/mL (≈ 0.0382 µM)
HCT-116
  IC50: 0.0135 µg/mL (≈ 0.00987 µM)
HCT/VP35
  IC50: 0.0271 µg/mL (≈ 0.0198 µM)
Moser human colon
  IC50: 1 µg/mL (≈ 0.731 µM)
HCT/VM34
  IC50: 0.3 µg/mL (≈ 0.219 µM)
